Laboratory results: ChEMBL document CHEMBL4256942, “Exo Olefin-Containing Nuclear Transport Modulators and Uses Thereof” (2016)
pEC50: −log10 of the molar value.

Biological target: Exportin-1 (Homo sapiens, UniProt O14980)
Experiment: Inhibition of CRM1 in human HeLa cells expressing GFP which is N-terminally fused to nuclear localization and C-terminally fused to nuclear export signal of PKI assesed as reduction in GFP subcellular localization incubated for 3 hrs by nuclear export assay
Assay type: cell-based

Sequence of Exportin-1 (O14980 whole entry, the tested form may be a part): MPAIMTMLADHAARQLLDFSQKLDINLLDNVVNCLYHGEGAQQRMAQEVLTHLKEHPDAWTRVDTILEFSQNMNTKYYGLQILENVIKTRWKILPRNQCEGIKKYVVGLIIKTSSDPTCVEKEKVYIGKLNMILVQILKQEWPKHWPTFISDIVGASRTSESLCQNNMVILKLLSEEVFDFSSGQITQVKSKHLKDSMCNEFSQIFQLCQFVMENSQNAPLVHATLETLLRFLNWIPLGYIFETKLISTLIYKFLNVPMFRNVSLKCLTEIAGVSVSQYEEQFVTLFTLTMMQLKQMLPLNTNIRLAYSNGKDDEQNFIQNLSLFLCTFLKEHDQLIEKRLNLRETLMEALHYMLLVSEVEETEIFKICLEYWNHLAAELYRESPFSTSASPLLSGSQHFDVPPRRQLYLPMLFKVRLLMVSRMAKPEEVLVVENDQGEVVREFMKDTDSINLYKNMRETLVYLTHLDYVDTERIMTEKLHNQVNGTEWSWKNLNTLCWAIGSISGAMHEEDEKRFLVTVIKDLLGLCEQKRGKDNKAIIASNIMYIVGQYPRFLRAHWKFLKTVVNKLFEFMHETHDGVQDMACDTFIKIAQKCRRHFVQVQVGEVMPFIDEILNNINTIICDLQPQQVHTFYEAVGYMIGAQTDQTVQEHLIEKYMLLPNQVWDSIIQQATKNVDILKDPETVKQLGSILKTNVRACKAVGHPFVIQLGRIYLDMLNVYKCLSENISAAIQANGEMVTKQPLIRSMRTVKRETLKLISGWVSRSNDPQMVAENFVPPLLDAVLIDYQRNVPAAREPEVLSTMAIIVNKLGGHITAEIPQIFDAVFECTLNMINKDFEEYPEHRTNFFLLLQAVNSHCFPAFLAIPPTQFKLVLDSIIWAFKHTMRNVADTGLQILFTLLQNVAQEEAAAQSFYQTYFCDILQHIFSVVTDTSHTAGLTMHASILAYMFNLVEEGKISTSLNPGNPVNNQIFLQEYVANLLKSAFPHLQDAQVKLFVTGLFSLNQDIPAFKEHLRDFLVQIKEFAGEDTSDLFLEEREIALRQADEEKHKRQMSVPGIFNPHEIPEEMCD

Row | Structure (SMILES) | pEC50
1 | C=C(Cn1nnc(-c2cccc(C(F)(F)F)c2)n1)C(=O)OCC | 4.52
2 | C=C(Cn1nnc(-c2cccc(Cl)c2)n1)C(=O)OCC | 4.52
